According to patent publication US20040077656A1, “Quinolines and nitrogenated derivatives thereof substituted in 4-position by a piperazine-containing moiety and their use as antibacterial agents” (priority 2000, published 2004):
Structures can show the parent of a compound that is named as a salt. Where two headings read alike, the source gives them in different places.

Tested on: S. aureus Oxford, S. aureus WCUH29, S. pneumoniae 1629, S. pneumoniae N1387, S. pneumoniae ERY 2
Assay: MIC of test compounds against various organisms
Assay type: cell-based
Method: The MIC (μg/ml) of test compounds against various organisms was determined: S. aureus Oxford, S. aureus WCUH29, S. pneumoniae 1629, S. pneumoniae N1387, S. pneumoniae ERY 2.

MIC (against one or more of S. aureus Oxford, S. aureus WCUH29, S. pneumoniae 1629, S. pneumoniae N1387, S. pneumoniae ERY 2, read-out: MIC) [µg/mL]	SMILES	MIC [µg/mL]
< 1	COc1ccc2nccc([C@@H](O)CN3CCN(CCNC(=O)c4cccs4)CC3)c2c1 [Example 7, Thiophene-2-carboxylic acid (2-{14[(R)-2-hydroxy-2-(6-methoxy-quinolin-4-yl)-ethyl]-piperazin-1-yl}-ethyl)-amide Dioxalate Salt]	
	COc1ccc2nccc([C@@H](O)CN3CCN(CCCCc4ccccc4)CC3)c2c1 [Example 12, (R)-1-(6-Methoxy-quinolin-4-yl)-2-[4-(4-phenyl-butyl)piperazin-1-yl]-ethanol Dioxalate]	< 1
